Assays:
human AChE = target: T1, human AChE (Homo sapiens, UniProt P22303); test: Reversible inhibition of human AChE, Ellman method with ATCh, Hunter-Downs analysis; format: biochemical; design: key to AChE type of inhibition: c, n and m stands for competitive, noncompetitive and mixed type of inhibition; c, n and m stands for competitive, noncompetitive and mixed type of inhibition; c, n and m stands for competitive, noncompetitive and mixed type of inhibition; conditions: for Ki: enzyme-inhibitor dissociation constant ± standard error, ATCh 0.050–0.50 mM, pH 7.4, 25 °C; for AChE Ks: enzyme-substrate (ATCh) dissociation constant derived from the inhibition kinetics with the compound; for AChE type of inhibition: symbol in brackets after Ki
T1 construct: gift of Dr. F. Nachon (Département de Toxicologie, Armed Forces Biomedical Research Institute, France)
Protocol: (§1) Purified human BChE and recombinant human AChE were kindly provided by Dr. F. Nachon (Département de Toxicologie, Armed Forces Biomedical Research Institute, France). The concentration of enzymes (BChE: 5.6 μM; AChE: 0.20 μM) was determined as described previously. The concentrated stocks of enzymes were diluted in a phosphate sodium buffer 0.1 M (pH 7.4) containing 0.1% BSA.
(§2) Enzyme activities were measured spectrophotometrically by Ellman method at 412 nm using 0.30 mM DTNB as thiol reagent and ATCh (0.050–0.50 mM) as substrate in 0.1 M phosphate buffer, pH 7.4 [29, 30]. For the inhibition, the reaction mixture also contained cinchonidines or cinchonines (final concentrations 0.020–200 μM, depending on compound). In the case of compounds CD-(pCl) and CN-(pCl), the final content of DMSO was the same in enzyme activity measurement and in inhibition measurements, up to 0.32%. No side interactions of tested compounds with ATCh or DTNB were detected. Measurements were done at 25 °C on a Tecan Infinite M200Pro plate reader (Austria).
(§3) The reversible inhibition of BChE and AChE by cinchonines and cinchonidines was measured by determining the decrease of enzyme activity towards ATCh (0.050–0.50 mM) in their presence. The activities of the enzymes were measured at different substrate concentrations ([S]) in the absence (v0) and presence (vi) of given cinchonines and cinchonidines concentration ([I]) selected to inhibit the enzymes for 20–80%. At least three concentrations of inhibitors for each substrate concentration were used in at least two experiments. The apparent dissociation inhibition constant (Ki,app) was calculated using the Hunter-Downs equation and the linear regression analysis: Ki,app=vi/v0−vi⋅[I]=K(I)+K(I)/K(S)⋅[S] where y-intercept determines the enzyme-inhibitor dissociation constants (K(I)), while x-intercept determines the enzyme-substrate dissociation constant, K(S). The equation was used with the assumption that the substrate, due to relatively low substrate concentrations used in experiments, binds only to the catalytic site, while inhibitor can bind to both sites catalytic and peripheral site. In other words, if the inhibitor competes with substrate for binding to the catalytic site of the enzyme, Ki,app proportionally depend on the substrate concentration. […] The curve means that the inhibitor binds not only to the catalytic or peripheral site but also to intermediates of Michaelis type of the enzyme-substrate complex.

human BChE = target: T2, human BChE (Homo sapiens, UniProt P06276); test: Reversible inhibition of human BChE, Ellman method with ATCh, Hunter-Downs analysis; format: biochemical; design: key to BChE type of inhibition: c, n and m stands for competitive, noncompetitive and mixed type of inhibition; c, n and m stands for competitive, noncompetitive and mixed type of inhibition; c, n and m stands for competitive, noncompetitive and mixed type of inhibition; conditions: for Ki: enzyme-inhibitor dissociation constant ± standard error, ATCh 0.050–0.50 mM, pH 7.4, 25 °C; for BChE Ks: enzyme-substrate (ATCh) dissociation constant derived from the inhibition kinetics with the compound; for Ki(AChE)/ Ki (BChE): inhibition selectivity, ratio of Ki constants for AChE and BChE
T2 construct: gift of Dr. F. Nachon (Département de Toxicologie, Armed Forces Biomedical Research Institute, France)
Protocol: as §1, §2, §3

T1 sequence (P22303 32-614): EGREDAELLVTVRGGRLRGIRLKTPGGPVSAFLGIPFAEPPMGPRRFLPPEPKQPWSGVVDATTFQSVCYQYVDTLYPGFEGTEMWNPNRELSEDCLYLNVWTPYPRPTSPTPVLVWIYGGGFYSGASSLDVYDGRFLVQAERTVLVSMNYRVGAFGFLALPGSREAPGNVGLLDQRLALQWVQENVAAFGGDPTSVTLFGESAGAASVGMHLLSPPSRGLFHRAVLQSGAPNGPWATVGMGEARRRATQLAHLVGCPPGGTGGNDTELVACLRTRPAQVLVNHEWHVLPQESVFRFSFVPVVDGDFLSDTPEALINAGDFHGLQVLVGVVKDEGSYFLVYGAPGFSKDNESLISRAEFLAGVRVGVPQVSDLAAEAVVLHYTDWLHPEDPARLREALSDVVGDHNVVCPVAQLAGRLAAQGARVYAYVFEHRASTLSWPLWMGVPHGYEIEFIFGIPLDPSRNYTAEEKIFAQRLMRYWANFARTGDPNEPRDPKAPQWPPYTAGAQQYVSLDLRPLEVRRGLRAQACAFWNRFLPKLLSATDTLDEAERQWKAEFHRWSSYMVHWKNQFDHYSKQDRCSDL
T2 sequence (P06276 29-602): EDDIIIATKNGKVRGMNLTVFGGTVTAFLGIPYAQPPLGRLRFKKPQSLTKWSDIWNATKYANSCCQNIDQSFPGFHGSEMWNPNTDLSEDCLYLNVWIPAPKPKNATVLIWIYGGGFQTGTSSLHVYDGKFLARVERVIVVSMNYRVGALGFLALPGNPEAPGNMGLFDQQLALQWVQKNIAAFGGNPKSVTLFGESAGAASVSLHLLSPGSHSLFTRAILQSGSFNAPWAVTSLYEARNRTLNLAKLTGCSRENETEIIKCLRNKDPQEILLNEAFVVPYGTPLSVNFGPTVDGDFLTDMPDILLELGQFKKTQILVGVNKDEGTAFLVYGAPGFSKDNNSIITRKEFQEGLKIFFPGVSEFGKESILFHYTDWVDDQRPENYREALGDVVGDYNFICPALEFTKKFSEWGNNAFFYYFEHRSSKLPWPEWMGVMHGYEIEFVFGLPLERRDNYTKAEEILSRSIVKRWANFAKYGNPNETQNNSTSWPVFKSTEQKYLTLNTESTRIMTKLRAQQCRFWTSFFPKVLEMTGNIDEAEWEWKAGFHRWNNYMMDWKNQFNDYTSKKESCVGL

Compound	Ki (human AChE) [µM]	AChE Ks (human AChE) [mM]	AChE type of inhibition (human AChE)	Ki (human BChE) [µM]	BChE Ks (human BChE) [mM]	BChE affinity lower compared to CD-(pBr) (human BChE; fold lower affinity than CD-(pBr))	BChE type of inhibition (human BChE; symbol in brackets after Ki)	Ki(AChE)/ Ki (BChE) (human BChE)	BChE type of inhibition (human BChE; substrate concentrations higher than 0.35 mM, deviation from linearity in Hunter-Downs plot)
C=CC1C[N+]2(C)CCC1CC2C(O)c1ccnc2ccccc12 (centres unmarked) [CD-Met]	67 ± 6	0.70 ± 0.17	c	26 ± 4	0.70 ± 0.22	approximately 730 times	c		
C=C[C@H]1C[N@@]2CC[C@H]1C[C@@H]2[C@@H](O)c1ccnc2ccccc12 [CN, cinchonine, reference compound]	34 ± 1	0.25 ± 0.01	c	4.9 ± 1.4	0.50 ± 0.27		c		
C=CC1C[N+]2(Cc3cccc(Br)c3)CCC1CC2C(O)c1ccnc2ccccc12 (centres unmarked) [CN-(mBr)]	39 ± 2	0.73 ± 0.08	m	2.3 ± 0.2	0.48 ± 0.09		m	17	
C=CC1C[N+]2(Cc3cccc(C)c3)CCC1CC2C(O)c1ccnc2ccccc12 (centres unmarked) [CN-(mCH3), N-(3-methylbenzyl) cinchoninium bromide]	49 ± 2	0.66 ± 0.06	m	4.6 ± 0.4	0.53 ± 0.00		m	11	
C=CC1C[N+]2(Cc3cccc(Cl)c3)CCC1CC2C(O)c1ccnc2ccccc12 (centres unmarked) [CN-(mCl)]	56 ± 8	0.19 ± 0.03	c	5.4 ± 0.5	0.63 ± 0.12		m	10	
C=CC1C[N+]2(Cc3cccc([N+](=O)[O-])c3)CCC1CC2C(O)c1ccnc2ccccc12 (centres unmarked) [CN-(mNO2)]	8.6 ± 0.5	0.72 ± 0.10	m	4.2 ± 0.3	0.35 ± 0.04		m	2.1	
C=CC1C[N+]2(Cc3ccc(Br)cc3)CCC1CC2C(O)c1ccnc2ccccc12 (centres unmarked) [CN-(pBr)]	31 ± 1	2.7 ± 0.9	m	3.5 ± 0.3	0.44 ± 0.07		c	8.8	
C=CC1C[N+]2(Cc3ccc(C)cc3)CCC1CC2C(O)c1ccnc2ccccc12 (centres unmarked) [CN-(pCH3), N-(4-methylbenzyl) cinchoninium bromide]	42 ± 2	2.0 ± 0.2	c	3.1 ± 0.3	0.33 ± 0.05		c	13	
C=CC1C[N+]2(Cc3ccc(Cl)cc3)CCC1CC2C(O)c1ccnc2ccccc12 (centres unmarked) [CN-(pCl)]	40 ± 4		n	6.2 ± 0.8	0.49 ± 0.12		m	6.4	mixed inhibition
C=CC1C[N+]2(Cc3ccc([N+](=O)[O-])cc3)CCC1CC2C(O)c1ccnc2ccccc12 (centres unmarked) [CN-(pNO2)]	51 ± 2		n	7.6 ± 0.7	0.32 ± 0.04		c	6.6	

Source: article PMC6173406, “Design and evaluation of selective butyrylcholinesterase inhibitors based on Cinchona alkaloid scaffold” (PLoS ONE, 2018)
